This is an account of results in patent publication US20150275254A1, “ENZYME LOADING, CELLULOSE HYDROLYSIS, AND INHIBITION OF CELLOBIOHYDROLASES USING LIQUID HOT WATER PRETREATMENT” (PURDUE RESEARCH FOUNDATION, priority 2014, published 2015).

The test system of one series is Cellic Ctec2. Briefly: Enzymatic hydrolysis of LHW pretreated hardwood (severity log Ro=12.51) at different hydrolysis conditions (FIG. 6). The note with it: 200 mM NaCl at pH 4.8; 5 FPU (8 mg) Ctec2/g glucan, 72 hrs. It counts as biochemical, Trichoderma reesei. The protocol: In this work, the lignocellulosic substrate was enzymatically hydrolyzed in order to study how the non-productive adsorption affected the enzymatic hydrolysis efficiency. The glucose yield of LHW pretreated hardwood containing 57.9% glucan and 40.3% lignin was measured for a low enzyme loading amount of 5 FPU (8 mg) Ctec2/g glucan at given conditions (FIG. 6). […] This might be due to the decreased cellulase activity at pH 5.5 as shown in microcrystalline cellulose (Avicel) hydrolysis. The overall decrease in T. reesei cellulase cocktail (Ctec2) adsorption onto lignins at elevated pHs was in agreement with the results by Lou et al. (2013). The reduced nonproductive adsorption led to the enhanced glucose yield more than twofold when the dilute acid or sulfite pretreated softwood was hydrolyzed with higher amount (10 FPU/g glucan) of cellulase (Lou et al., 2013).

For series [1], the target named is β-glucosidase from T. reesei. The settings on record: cited from earlier work.
Series [2] addresses T1, β-glucosidase from A. niger (Aspergillus niger, UniProt A2RAL4).
T1 sequence (A2RAL4 20-860): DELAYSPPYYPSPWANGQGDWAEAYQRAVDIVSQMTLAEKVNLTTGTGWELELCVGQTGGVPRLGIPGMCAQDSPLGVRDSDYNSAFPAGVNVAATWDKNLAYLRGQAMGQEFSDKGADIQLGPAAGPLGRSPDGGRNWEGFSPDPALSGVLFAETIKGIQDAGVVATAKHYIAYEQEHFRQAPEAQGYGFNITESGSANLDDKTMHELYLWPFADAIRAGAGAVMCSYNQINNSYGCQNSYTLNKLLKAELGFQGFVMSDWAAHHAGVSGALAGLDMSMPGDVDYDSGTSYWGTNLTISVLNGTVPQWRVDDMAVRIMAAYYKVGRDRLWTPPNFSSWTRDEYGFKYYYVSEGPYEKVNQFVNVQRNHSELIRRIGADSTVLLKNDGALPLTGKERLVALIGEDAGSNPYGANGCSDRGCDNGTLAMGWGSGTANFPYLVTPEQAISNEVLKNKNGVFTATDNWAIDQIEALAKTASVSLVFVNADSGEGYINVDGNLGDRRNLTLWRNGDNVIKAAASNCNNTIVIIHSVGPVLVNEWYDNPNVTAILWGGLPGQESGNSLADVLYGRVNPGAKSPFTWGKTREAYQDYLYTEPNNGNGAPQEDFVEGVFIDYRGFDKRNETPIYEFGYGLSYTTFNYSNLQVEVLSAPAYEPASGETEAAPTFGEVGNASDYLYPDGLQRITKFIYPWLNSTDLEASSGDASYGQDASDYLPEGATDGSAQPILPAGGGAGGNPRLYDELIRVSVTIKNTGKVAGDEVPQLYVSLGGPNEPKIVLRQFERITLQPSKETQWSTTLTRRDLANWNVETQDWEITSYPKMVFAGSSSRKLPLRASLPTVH
The note with it: cited from earlier work.

For series [3] the following is noted: adapted from literature; cited from earlier work.

As for `[Cl-].[Na+]` [NaCl], the “effect on glucose yield” value with Cellic Ctec2 is reported as “did not affect the glucose yield”.
On to `O=C(O)c1cc(O)c(O)c(O)c1` [gallic acid], for which the “k, deactivation rate constant” value in series [1] is 0.046 h⁻¹; in series [2], 0.006 h⁻¹.
Consider `O=C(OC[C@H]1O[C@@H](OC(=O)c2cc(O)c(O)c(OC(=O)c3cc(O)c(O)c(O)c3)c2)[C@H](OC(=O)c2cc(O)c(O)c(OC(=O)c3cc(O)c(O)c(O)c3)c2)[C@@H](OC(=O)c2cc(O)c(O)c(OC(=O)c3cc(O)c(O)c(O)c3)c2)[C@@H]1OC(=O)c1cc(O)c(O)c(OC(=O)c2cc(O)c(O)c(O)c2)c1)c1cc(O)c(O)c(OC(=O)c2cc(O)c(O)c(O)c2)c1` [tannic acid], for which the “k, deactivation rate constant” value in series [1] was 0.068 h⁻¹; in series [2], 0.045 h⁻¹.

B1: CBHII: T. reesei enzyme, gene cel6a, GH6 (protein, UniProt P07987 25-471, looked up)
Exoglucanase 2: QACSSVWGQCGGQNWSGPTCCASGSTCVYSNDYYSQCLPGAASSSSSTRAASTTSRVSPTTSRSSSATPPPGSTTTRVPPVGSGTATYSGNPFVGVTPWANAYYASEVSSLAIPSLTGAMATAAAAVAKVPSFMWLDTLDKTPLMEQTLADIRTANKNGGNYAGQFVVYDLPDRDCAALASNGEYSIADGGVAKYKNYIDTIRQIVVEYSDIRTLLVIEPDSLANLVTNLGTPKCANAQSAYLECINYAVTQLNLPNVAMYLDAGHAGWLGWPANQDPAAQLFANVYKNASSPRALRGLATNVANYNGWNITSPPSYTQGNAVYNEKLYIHAIGPLLANHGWSNAFFITDQGRSGKQPTGQQQWGDWCNVIGTGFGIRPSANTGDSLLDSFVWVKPGGECDGTSDSSAPRFDSHCALPDALQPAPQAGAWFQAYFVQLLTNANPSFL
As to B1, the “Experimental pI” value in series [3] is “(5.2-5.9)”.

B2: EGII: T. reesei enzyme, gene cel5a, GH5 (protein, UniProt P07982 22-418, looked up)
Endoglucanase EG-II: QQTVWGQCGGIGWSGPTNCAPGSACSTLNPYYAQCIPGATTITTSTRPPSGPTTTTRATSTSSSTPPTSSGVRFAGVNIAGFDFGCTTDGTCVTSKVYPPLKNFTGSNNYPDGIGQMQHFVNEDGMTIFRLPVGWQYLVNNNLGGNLDSTSISKYDQLVQGCLSLGAYCIVDIHNYARWNGGIIGQGGPTNAQFTSLWSQLASKYASQSRVWFGIMNEPHDVNINTWAATVQEVVTAIRNAGATSQFISLPGNDWQSAGAFISDGSAAALSQVTNPDGSTTNLIFDVHKYLDSDNSGTHAECTTNNIDGAFSPLATWLRQNNRQAILTETGGGNVQSCIQDMCQQIQYLNQNSDVYLGYVGWGAGSFDSTYVLTETPTSSGNSWTDTSLVSSCLARK
With B2, the “Experimental pI” value in series [3] is listed as “(4.2-5.5)”.

B3: CBHI: T. reesei enzyme, gene cel7a, GH7 (protein, UniProt P62694 18-513, looked up)
Exoglucanase 1: QSACTLQSETHPPLTWQKCSSGGTCTQQTGSVVIDANWRWTHATNSSTNCYDGNTWSSTLCPDNETCAKNCCLDGAAYASTYGVTTSGNSLSIGFVTQSAQKNVGARLYLMASDTTYQEFTLLGNEFSFDVDVSQLPCGLNGALYFVSMDADGGVSKYPTNTAGAKYGTGYCDSQCPRDLKFINGQANVEGWEPSSNNANTGIGGHGSCCSEMDIWEANSISEALTPHPCTTVGQEICEGDGCGGTYSDNRYGGTCDPDGCDWNPYRLGNTSFYGPGSSFTLDTTKKLTVVTQFETSGAINRYYVQNGVTFQQPNAELGSYSGNELNDDYCTAEEAEFGGSSFSDKGGLTQFKKATSGGMVLVMSLWDDYYANMLWLDSTYPTNETSSTPGAVRGSCSTSSGVPAQVESQSPNAKVTFSNIKFGPIGSTGNPSGGNPPGGNRGTTTTRRPATTTGSSPGPTQSHYGQCGGIGYSGPTVCASGTTCQVLNPYYSQCL
Take B3: the “Experimental pI” value in series [3] is reported as “(3.6-3.9)”.

B4: EGI: T. reesei enzyme, gene cel7b, GH7 (protein, UniProt P07981 23-459, looked up)
Endoglucanase EG-1: QQPGTSTPEVHPKLTTYKCTKSGGCVAQDTSVVLDWNYRWMHDANYNSCTVNGGVNTTLCPDEATCGKNCFIEGVDYAASGVTTSGSSLTMNQYMPSSSGGYSSVSPRLYLLDSDGEYVMLKLNGQELSFDVDLSALPCGENGSLYLSQMDENGGANQYNTAGANYGSGYCDAQCPVQTWRNGTLNTSHQGFCCNEMDILEGNSRANALTPHSCTATACDSAGCGFNPYGSGYKSYYGPGDTVDTSKTFTIITQFNTDNGSPSGNLVSITRKYQQNGVDIPSAQPGGDTISSCPSASAYGGLATMGKALSSGMVLVFSIWNDNSQYMNWLDSGNAGPCSSTEGNPSNILANNPNTHVVFSNIRWGDIGSTTNSTAPPPPPASSTTFSTTRRSSTTSSSPSCTQTHWGQCGGIGYSGCKTCTSGTTCQYSNDYYSQCL
For B4, the “Experimental pI” value in series [3] is on record as “(3.9-4.5)”.
